Experimental data: US20210040062A1, “AZOLE-SUBSTITUTED PYRIDINE COMPOUND” (TAISHO PHARMACEUTICAL CO., LTD., priority 2016, published 2021)

Tests used:
[1] = target: T1, human CYP4F2 (Homo sapiens, UniProt P78329); assay: CYP4F2 inhibition test (Test Example 1); type: biochemical; conditions: Escherichia coli membrane fraction expressing human CYP4F2, 2.5 μM luciferine derivative, room temperature 60 minutes, luminescence
T1 construct: host or cells: Escherichia coli (membrane fraction)
T1 sequence (P78329 5-520): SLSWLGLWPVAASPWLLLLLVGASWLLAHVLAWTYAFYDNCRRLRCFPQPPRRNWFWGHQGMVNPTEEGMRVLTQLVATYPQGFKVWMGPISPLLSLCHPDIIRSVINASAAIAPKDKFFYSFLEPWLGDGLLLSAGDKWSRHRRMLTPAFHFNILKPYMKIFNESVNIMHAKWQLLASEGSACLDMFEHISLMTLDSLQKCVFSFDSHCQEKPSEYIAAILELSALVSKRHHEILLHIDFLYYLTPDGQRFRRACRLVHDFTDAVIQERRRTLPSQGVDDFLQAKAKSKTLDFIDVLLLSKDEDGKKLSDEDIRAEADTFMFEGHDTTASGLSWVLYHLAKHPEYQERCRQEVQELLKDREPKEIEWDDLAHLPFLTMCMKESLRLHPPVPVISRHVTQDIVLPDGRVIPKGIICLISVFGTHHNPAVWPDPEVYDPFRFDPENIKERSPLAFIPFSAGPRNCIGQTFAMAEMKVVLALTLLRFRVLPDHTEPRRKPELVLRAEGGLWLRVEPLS
Procedure, shortened: (§1)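 Luminescent read-out after adding luciferin detection reagent to a 60 min room-temperature reaction of compound with human CYP-expressing E. coli membrane fraction (100 μg/mL). Substrate and buffer differ: 60 μM luciferin derivative in Tris pH 7.5 with NADPH regeneration for CYP4A11; 2.5 μM in KPO4 pH 7.4 with 1 mM NADPH for CYP4F2.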

[2] = target: T2, human CYP4A11 (Homo sapiens, UniProt Q02928); assay: CYP4A11 inhibition test (Test Example 1); type: biochemical; conditions: Escherichia coli membrane fraction expressing human CYP4A11, 60 μM luciferine derivative, room temperature 60 minutes, luminescence
T2 construct: host or cells: Escherichia coli (membrane fraction)
T2 sequence (Q02928 5-519): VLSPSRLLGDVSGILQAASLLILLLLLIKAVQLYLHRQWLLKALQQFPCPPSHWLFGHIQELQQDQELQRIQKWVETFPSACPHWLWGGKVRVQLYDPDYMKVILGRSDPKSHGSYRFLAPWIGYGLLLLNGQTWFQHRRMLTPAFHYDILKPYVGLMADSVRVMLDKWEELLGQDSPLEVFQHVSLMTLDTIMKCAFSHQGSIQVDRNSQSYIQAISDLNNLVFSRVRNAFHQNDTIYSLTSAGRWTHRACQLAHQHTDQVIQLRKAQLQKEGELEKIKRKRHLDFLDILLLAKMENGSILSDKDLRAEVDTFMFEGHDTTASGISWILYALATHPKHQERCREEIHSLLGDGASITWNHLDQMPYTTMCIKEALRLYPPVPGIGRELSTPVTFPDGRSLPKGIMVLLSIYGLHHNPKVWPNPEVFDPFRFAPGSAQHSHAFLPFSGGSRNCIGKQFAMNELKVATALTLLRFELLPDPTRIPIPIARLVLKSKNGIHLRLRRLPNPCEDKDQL
Procedure, shortened: as §1

Work on `CS(=O)(=O)c1ccccc1CCOc1ccc(-c2cn[nH]c2)nc1` [Example 39-2] yielded an IC50 [1] of 0.32 µM and an IC50 [2] of 0.095 µM.

`CS(=O)(=O)c1cccc(COc2ccc(-c3[nH]ncc3C(F)(F)F)nc2)c1` [Example 40-1, 5-[(3-Methylsulfonylphenyl)methoxy]-2-[4-(trifluoromethyl)-1H-pyrazol-5-yl]pyridine] was tested, and the IC50 [1] was 12 µM and the IC50 [2] was 12 µM.

In the case of `CS(=O)(=O)c1cccc(COc2ccc(-c3cn[nH]c3)nc2)c1` [Example 41-1, 5-[(3-Methylsulfonylphenyl)methoxy]-2-(1H-pyrazol-4-yl)pyridine], the IC50 [1] is reported as 0.47 µM and the IC50 [2] is reported as 0.12 µM.

`Cc1n[nH]cc1-c1ccc(OCc2cccc(S(C)(=O)=O)c2)cn1` [Example 41-2] was tested, and the IC50 [1] was 4.3 µM and the IC50 [2] was 1.1 µM.

`CS(=O)(=O)c1cccc(COc2ccc(-c3cnsc3)nc2)c1` [Example 41-3] was tested, and the IC50 [1] was 1.6 µM and the IC50 [2] was 0.52 µM.

With `CC(=O)N1CCC(COc2ccc(-c3ccns3)nc2)CC1` [Example 42-1, 1-(4-{[6-(1,2-Thiazol-5-yl)pyridin-3-yl]oxymethyl}piperidin-1-yl)ethanone] the IC50 [1] was 0.044 µM and the IC50 [2] was 0.11 µM.

Work on `CS(=O)(=O)c1cccc(COc2ccc(-c3ccns3)nc2)c1` [Example 42-2] yielded an IC50 [1] of 0.14 µM and an IC50 [2] of 0.065 µM.

Compound `CC(=O)N1CCC(COc2ccc(-c3c[nH]nn3)nc2)CC1` [Example 43-1, 1-(4-{[6-(1H-Triazol-4-yl)pyridin-3-yl]oxymethyl}piperidin-1-yl)ethanone] has an IC50 [1] of 3.1 µM and an IC50 [2] of 4.8 µM.

With `CC(=O)N1CCC(COc2ccc(-c3ncn[nH]3)nc2)CC1` [Example 43-2] the IC50 [1] was 0.25 µM and the IC50 [2] was 1.3 µM.

In the case of `O=S1(=O)CCC(COc2ccc(-c3cn[nH]c3)nc2)CC1` [Example 43-3], the IC50 [1] is reported as 3.8 µM and the IC50 [2] is reported as 0.6 µM.

With `O=S1(=O)CCCC(COc2ccc(-c3cn[nH]c3)nc2)C1` (stereo not drawn) [Example 43-4] the IC50 [1] was 5.4 µM and the IC50 [2] was 0.39 µM.

For `O=S1(=O)CCC(CCOc2ccc(-c3cn[nH]c3)nc2)CC1` [Example 43-5], the IC50 [1] was 3.4 µM and the IC50 [2] was 0.29 µM.

With `O=S1(=O)CCCC(CCOc2ccc(-c3cn[nH]c3)nc2)C1` (stereo not drawn) [Example 43-6] the IC50 [1] was 3.5 µM and the IC50 [2] was 0.42 µM.

Compound `CS(=O)(=O)c1cccc(COc2ccc(-c3c[nH]nn3)nc2)c1` [Example 44-1, 5-[(3-Methylsulfonylphenyl)methoxy]-2-(1H-triazol-4-yl)pyridine] has an IC50 [1] of 9 µM and an IC50 [2] of 2.4 µM.

`CC(=O)N1CCC(COc2ccc(-n3ccnn3)nc2)CC1` [Example 45-1, 1-(4-{[6-(Triazol-1-yl)pyridin-3-yl]oxymethyl}piperidin-1-yl)ethanone] showed an IC50 [1] of 0.37 µM and an IC50 [2] of 1.3 µM.

`CS(=O)(=O)c1cccc(COc2ccc(-n3ccnn3)nc2)c1` [Example 45-2] was tested, and the IC50 [1] was 3.1 µM and the IC50 [2] was 0.64 µM.

With `CC(=O)N1CCC(COc2ccc(-n3cncn3)nc2)CC1` [Example 45-3] the IC50 [1] was 0.026 µM and the IC50 [2] was 0.055 µM.

`CS(=O)(=O)c1cccc(COc2ccc(-n3cncn3)nc2)c1` [Example 45-4] was tested, and the IC50 [1] was 0.22 µM and the IC50 [2] was 0.031 µM.

`CC(=O)N1CCC(COc2ccc(-n3cnnc3)nc2)CC1` [Example 45-5] showed an IC50 [1] of 1.6 µM and an IC50 [2] of 11 µM.

With `CS(=O)(=O)c1cccc(COc2ccc(-n3cnnc3)nc2)c1` [Example 45-6] the IC50 [1] was 16 µM and the IC50 [2] was 5.7 µM.

Work on `CS(=O)(=O)c1cccc(COc2ccc(-c3[nH]ncc3C(F)F)nc2)c1` [Example 46-1, 2-[4-(Difluoromethyl)-1H-pyrazol-5-yl]-5-[(3-methylsulfonylphenyl)methoxy]pyridine] yielded an IC50 [1] of 7.5 µM and an IC50 [2] of 3.9 µM.

`CS(=O)(=O)c1cccc(COc2ccc(-c3ncn[nH]3)nc2)c1` [Example 46-2] showed an IC50 [1] of 1.5 µM and an IC50 [2] of 0.34 µM.

Compound `CS(=O)(=O)N1CCC[C@H](COc2ccc(-c3cn[nH]c3)nc2)C1` [Example 46-3] has an IC50 [1] of 2 µM and an IC50 [2] of 0.033 µM.

`CS(=O)(=O)N1CCC[C@@H](COc2ccc(-c3cn[nH]c3)nc2)C1` [Example 46-4] was tested, and the IC50 [1] was 1.4 µM and the IC50 [2] was 0.039 µM.
